The text below walks through data of the supplement of paper PMC11003180.

What all share (assay): drug sensitivity score (DSS) from 5-dose viability curve (DSS (area-based score, 0 = no response)); higher = more sensitive (stronger viability inhibition); extreme values may be limits of the assay
Experiment [1] relates to MDCK wild-type - doxycycline. Conditions: doxycycline: none; 72 h. In outline: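 Parental MDCK cells, grown without doxycycline, were seeded at 2000 cells/well into 384-well plates pre-spotted with an oncology library of 528 drugs at five doses (1-10,000 nM). After 72 h at 37 °C, CellTiter-Glo luminescence was read. Viability was scaled per plate between vehicle and positive controls, and drug sensitivity scores were derived from dose-response curve fits in the Breeze pipeline.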

Experiment [2] concerns MDCK wild-type + doxycycline. The conditions noted are these: doxycycline: 10 ng/mL; 72 h. In outline:
(§1)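 After 72 h at 37 °C on 384-well plates pre-spotted with 528 oncology drugs at five doses (1-10,000 nM), parental and doxycycline-inducible MDCK cells were assessed; both lines had been given 10 ng/mL doxycycline in the medium before seeding at 2000 cells/well. Viability was taken from CellTiter-Glo luminescence scaled per plate to vehicle and positive controls, and drug sensitivity scores were derived from dose-response fits in the Breeze pipeline.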

Experiment [3] relates to MDCK p60AmotL2-inducible + doxycycline (p60AmotL2 expressing). Conditions: doxycycline: 10 ng/mL; 72 h. In outline:
as §1

Take `C[C@H]1O[C@@H](O[C@H]2[C@@H](O)C[C@H](O[C@H]3[C@@H](O)C[C@H](O[C@H]4CC[C@@]5(C)[C@H](CC[C@@H]6[C@@H]5C[C@@H](O)[C@]5(C)[C@@H](C7=CC(=O)OC7)CC[C@]65O)C4)O[C@@H]3C)O[C@@H]2C)C[C@H](O)[C@@H]1O` [Digoxin]: the drug sensitivity score in experiment [1] came out at 6; in experiment [2], 11.2; in experiment [3], 5.3.
With `CCc1cnn2c(NCc3ccc[n+]([O-])c3)cc(N3CCCC[C@H]3CCO)nc12` [Dinaciclib], the drug sensitivity score in experiment [1] worked out at 18.3; in experiment [2] it was 17; in experiment [3] it was 16.3.
In the case of `CC(=O)O[C@@]12CO[C@@H]1C[C@H](O)[C@@]1(C)C(=O)[C@H](O)C3=C(C)[C@@H](OC(=O)[C@H](O)[C@@H](NC(=O)OC(C)(C)C)c4ccccc4)C[C@@](O)([C@@H](OC(=O)c4ccccc4)[C@H]21)C3(C)C` [Docetaxel], the drug sensitivity score is 19.3 in experiment [1], 23.2 in experiment [2] and 27 in experiment [3].
The matching figures for `Cc1ccc(-n2nc(C(C)(C)C)cc2NC(=O)Nc2ccc(OCCN3CCOCC3)c3ccccc23)cc1` [Doramapimod]: 0, 0 and 0.
For `CN1CCN(c2ccc3nc(-c4c(N)c5c(F)cccc5[nH]c4=O)[nH]c3c2)CC1` [Dovitinib] the same measures were 0, 2.5 and 0.
With `COc1cccc2c1C(=O)c1c(O)c3c(c(O)c1C2=O)C[C@@](O)(C(=O)CO)C[C@@H]3O[C@H]1C[C@H](N)[C@H](O)[C@H](C)O1` [Doxorubicin], the values for the drug sensitivity score in experiment [1], in experiment [2] and in experiment [3] were 3.7, 8.3 and 9.8, respectively.
Consider `C[C@H](Nc1ncnc2nc[nH]c12)c1cc2cccc(Cl)c2c(=O)n1-c1ccccc1` [Duvelisib], for which the drug sensitivity score in experiment [1], in experiment [2] and in experiment [3] was 0 in each case.
Consider `Cc1ccc(NS(=O)(=O)c2cccc(C#N)c2)c2[nH]cc(C#N)c12` [E7820], for which the drug sensitivity score stood at 14.5 in experiment [1], 19.9 in experiment [2] and 20.4 in experiment [3].
For `Cc1cc(Nc2cc(N3CCN(C)CC3)nc(/C=C/c3ccccc3)n2)n[nH]1` [ENMD-2076] the same measures were 6.5, 8.5 and 10.7.
As for `Cc1cc(C)c(CNC(=O)c2cc(-c3ccc(CN4CCOCC4)cc3)cc3c2cnn3C2CCCC2)c(=O)[nH]1` [EPZ-5687], the drug sensitivity score in experiment [1], in experiment [2] and in experiment [3] was 0 throughout.
Consider `NC(=O)/C(=C/n1cnc(-c2cc(C(F)(F)F)cc(C(F)(F)F)c2)n1)c1cncnc1` [Eltanexor], for which the drug sensitivity score in experiment [1] stood at 19.6; in experiment [2], 21.8; in experiment [3], 19.9.
`CC(C)(O)CNc1nc(Nc2ccnc(C(F)(F)F)c2)nc(-c2cccc(C(F)(F)F)n2)n1` [Enasidenib]: the drug sensitivity score in experiment [1], in experiment [2] and in experiment [3] was 0 throughout.
For the compound `COC(=O)N[C@@H](C)CNc1nccc(-c2cn(C(C)C)nc2-c2cc(Cl)cc(NS(C)(=O)=O)c2F)n1` [Encorafenib], the values for the drug sensitivity score in experiment [1], in experiment [2] and in experiment [3] were 0.2, 0 and 0, respectively.
In the case of `C[C@@H]1CN(C(=O)c2ccc(NC(=O)c3cc(O[C@H](C)c4c(Cl)ccc(F)c4Cl)c(N)nn3)cc2)C[C@H](C)N1` [Ensartinib], the drug sensitivity score in experiment [1] was determined as 0; in experiment [2], 0; in experiment [3] it was 1.4.
As for `Nc1ccccc1NC(=O)c1ccc(CNC(=O)OCc2cccnc2)cc1` [Entinostat], the figures for the drug sensitivity score in experiment [1], in experiment [2] and in experiment [3] were 5.4, 5.5 and 4.4, respectively.
For the compound `c1cn2cc(-c3ccc4cn[nH]c4c3)nc(Nc3ccc(N4CCOCC4)cc3)c2n1` [Entospletinib], the drug sensitivity score in experiment [1], in experiment [2] and in experiment [3] was 0 in each case.
With `CN1CCN(c2ccc(C(=O)Nc3n[nH]c4ccc(Cc5cc(F)cc(F)c5)cc34)c(NC3CCOCC3)c2)CC1` [Entrectinib], the drug sensitivity score in experiment [1] was 0; in experiment [2], 0; in experiment [3], 0.6.
As to `CNC(=O)c1ccc(N2C(=S)N(c3ccc(C#N)c(C(F)(F)F)c3)C(=O)C2(C)C)cc1F` [Enzalutamide], the drug sensitivity score in experiment [1], in experiment [2] and in experiment [3] was 0 throughout.
Take `Cn1cc(C2=C(c3cn(C4CCN(Cc5ccccn5)CC4)c4ccccc34)C(=O)NC2=O)c2ccccc21` [Enzastaurin]: the drug sensitivity score in experiment [1], in experiment [2] and in experiment [3] was 0 in each case.
With `NS(=O)(=O)NCCNc1nonc1/C(=N/O)Nc1ccc(F)c(Br)c1` [Epacadostat], the drug sensitivity score in experiment [1], in experiment [2] and in experiment [3] was 0 throughout.
In the case of `COc1cccc2c1C(=O)c1c(O)c3c(c(O)c1C2=O)C[C@@](O)(C(=O)CO)C[C@@H]3O[C@H]1C[C@H](N)[C@@H](O)[C@H](C)O1` [Epirubicin], the figures for the drug sensitivity score in experiment [1], in experiment [2] and in experiment [3] were 5.9, 10 and 11.6, respectively.
Turning to `CCOc1ccccc1-n1c(C(C)N2CCN(C(=O)COc3ccc(Cl)cc3)CC2)nc2ccccc2c1=O` (configuration not stated) [Erastin], the drug sensitivity score in experiment [1], in experiment [2] and in experiment [3] was 0 each time.
For `COc1cc(OC)cc(N(CCNC(C)C)c2ccc3ncc(-c4cnn(C)c4)nc3c2)c1` [Erdafitinib], the drug sensitivity score in experiment [1], in experiment [2] and in experiment [3] was 0 throughout.
As for `C=C1C[C@@H]2CC[C@@]34C[C@H]5O[C@H]6[C@@H](O3)[C@H]3O[C@H](CC[C@@H]3O[C@H]6[C@H]5O4)CC(=O)C[C@@H]3[C@@H](OC)[C@@H](C[C@H](O)CN)O[C@H]3C[C@H]3O[C@@H](CC[C@@H]1O2)C[C@@H](C)C3=C` [Eribulin], the drug sensitivity score was found to be 17.3 in experiment [1], 22.5 in experiment [2] and 23.4 in experiment [3].
Regarding `C#Cc1cccc(Nc2ncnc3cc(OCCOC)c(OCCOC)cc23)c1` [Erlotinib], the drug sensitivity score in experiment [1] was 3.4; in experiment [2] it was 4.5; in experiment [3] it was 15.4.
For `COc1cc([C@@H]2c3cc4c(cc3[C@@H](O[C@@H]3O[C@@H]5CO[C@@H](C)O[C@H]5[C@H](O)[C@H]3O)[C@H]3COC(=O)[C@H]23)OCO4)cc(OC)c1O` [Etoposide] the same measures were 4.3, 6.9 and 9.5.
The matching figures for `CO[C@H]1C[C@@H]2CC[C@@H](C)[C@@](O)(O2)C(=O)C(=O)N2CCCC[C@H]2C(=O)O[C@H]([C@H](C)C[C@@H]2CC[C@@H](OCCO)[C@H](OC)C2)CC(=O)[C@H](C)/C=C(\C)[C@@H](O)[C@@H](OC)C(=O)[C@H](C)C[C@H](C)/C=C/C=C/C=C/1C` [Everolimus]: 2.1, 2.1 and 8.
The matching figures for `C=C1C[C@@H]2[C@H](CC[C@]3(C)C(=O)CC[C@@H]23)[C@@]2(C)C=CC(=O)C=C12` [Exemestane]: 0, 0 and 0.
Consider `CCn1c(=O)c(-c2ccc(Cl)cc2Cl)cc2cnc(Nc3ccc(N4CCNCC4)c(F)c3)nc21` [FRAX486], for which the figures for the drug sensitivity score in experiment [1], in experiment [2] and in experiment [3] were 1.7, 0 and 2.3, respectively.
For `Cc1cnc(Nc2ccc(OCCN3CCCC3)cc2)nc1Nc1cccc(S(=O)(=O)NC(C)(C)C)c1` [Fedratinib] the same measures were 6, 5.7 and 6.9.
Regarding `CON(C)C(=O)N1N=C(c2cc(F)ccc2F)S[C@@]1(CCCN)c1ccccc1` [Filanesib], the drug sensitivity score in experiment [1] was found to be 29.1; in experiment [2], 28.7; in experiment [3] it was 27.5.
Consider `O=C(Nc1nc2cccc(-c3ccc(CN4CCS(=O)(=O)CC4)cc3)n2n1)C1CC1` [Filgotinib], for which the drug sensitivity score in experiment [1], in experiment [2] and in experiment [3] was 0 each time.
Turning to `CC(C)(C)NC(=O)[C@H]1CC[C@H]2[C@@H]3CC[C@H]4NC(=O)C=C[C@]4(C)[C@H]3CC[C@]12C` [Finasteride], the drug sensitivity score in experiment [1], in experiment [2] and in experiment [3] was 0 each time.
With `CCCCCCCCc1ccc(CCC(N)(CO)CO)cc1` [Fingolimod], the results for the drug sensitivity score in experiment [1], in experiment [2] and in experiment [3] were 6.7, 8.7 and 6.7, respectively.
